Test results reported in patent US10450316B2, “Certain protein kinase inhibitor” (Chongqing Fochon Pharmaceutical Co., Ltd., priority 2015, dated 2019).

Each compound was assayed on BE(2)-C cell (assay: Cell proliferation assay (MTS) in BE(2)-C cells). Conditions: Homo sapiens, inhibition of BE(2)-C cell proliferation, 48 h.
Assay type: cell-based
In short: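 Proliferation read-out was MTS absorbance at 490 nm, with 650 nm as reference, after a 2 h MTS incubation, giving IC50 values. Before reading, BE(2)-C cells plated at 3000 per well were exposed to nine compound concentrations from 10000 down to 1.5 nM for 48 h at 37 °C, 5% CO2.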
With `CCN1CC2CCC(C1)N2Cc1ccc(Nc2ncc(F)c(-c3cc(F)c4nc5n(c4c3)[C@H](C)CC5)n2)nc1` [Example 103, N-(5-((3-ethyl-3,8-diazabicyclo[3.2.1]octan-8-yl)methyl)pyridin-2-yl)-5-fluoro-4-((R)-5-fluoro-1-methyl-2,3-dihydro-1H-benzo[d]pyrrolo[1,2-a]imidazol-7-yl)pyrimidin-2-amine] the IC50 was 10 to 100 nM. Compound `CN1CCN(Cc2ccc(Nc3ncc(F)c(-c4cc(F)c5nc6n(c5c4)CCC6)n3)nc2)CC1` [Example 150, 5-fluoro-4-(5-fluoro-2,3-dihydro-1H-benzo[d]pyrrolo[1,2-a]imidazol-7-yl)-N-(5-((4-methyl-piperazin-1-yl)methyl)pyridin-2-yl)pyrimidin-2-amine] has an IC50 of 10 to 100 nM. `CCN1CCC2(CC1)CCN(Cc1ccc(Nc3ncc(F)c(-c4cc(F)c5nc6n(c5c4)[C@H](CF)CC6)n3)nc1)CC2` [Example 31, (S)-N-(5-((9-ethyl-3,9-diazaspiro[5.5]undecan-3-yl)methyl)pyridin-2-yl)-5-fluoro-4-(5-fluoro-1-(fluoromethyl)-2,3-dihydro-1H-benzo[d]pyrrolo[1,2-a]imidazol-7-yl)pyrimidin-2-amine] was tested, and the IC50 was > 100 nM. In the case of `NC1C2CN(Cc3ccc(Nc4ncc(F)c(-c5cc(F)c6nc7n(c6c5)C5(CC7)CC5)n4)nc3)CC12` (stereo not drawn) [Example 147, 3-((6-((5-fluoro-4-(5-fluoro-2,3-dihydrospiro [benzo[d]pyrrolo[1,2-a]imidazole-1,1′-cyclo-propan]-7-yl)pyrimidin-2-yl)amino)pyridin-3-yl)methyl)-3-azabicyclo[3.1.0]hexan-6-amine], the IC50 is reported as > 1000 nM. `CN1CC2CCC(C1)N2Cc1ccc(Nc2ncc(F)c(-c3cc(F)c4nc5n(c4c3)C(C)(C)CC5)n2)nc1` [Example 127, 5-fluoro-4-(5-fluoro-1,1-dimethyl-2,3-dihydro-1H-benzo[d]pyrrolo[1,2-a]imidazol-7-yl)-N-(5-((3-methyl-3,8-diazabicyclo[3.2.1]octan-8-yl)methyl)pyridin-2-yl)pyrimidin-2-amine] was tested, and the IC50 was < 10 nM. In the case of `CN1CCC2(CC1)CCN(Cc1ccc(Nc3ncc(F)c(-c4cc(F)c5nc6n(c5c4)[C@H](C(F)(F)F)CC6)n3)nc1)CC2` [Example 71, (S)-5-fluoro-4-(5-fluoro-1-(trifluoromethyl)-2,3-dihydro-1H-benzo[d]pyrrolo[1,2-a]imidazol-7-yl)-N-(5-((9-methyl-3,9-diazaspiro[5.5]undecan-3-yl)methyl)pyridin-2-yl)pyrimidin-2-amine], the IC50 is reported as 10 to 100 nM. In the case of `CCN1CCC2(CC1)CN(Cc1ccc(Nc3ncc(F)c(-c4cc(F)c5nc6n(c5c4)C(C)(C)CC6)n3)nc1)C2` [Example 113, N-(5-((7-ethyl-2,7-diazaspiro[3.5]nonan-2-yl)methyl)pyridin-2-yl)-5-fluoro-4-(5-fluoro-1,1-dimethyl-2,3-dihydro-1H-benzo[d]pyrrolo[1,2-a]imidazol-7-yl)pyrimidin-2-amine], the IC50 is reported as < 10 nM. `FC[C@@H]1CCc2nc3c(F)cc(-c4nc(Nc5ccc(CN6CC7CCC(C6)N7)cn5)ncc4F)cc3n21` [Example 35, N-(5-((3,8-diazabicyclo[3.2.1]octan-3-yl)methyl)pyridin-2-yl)-5-fluoro-4-((5)-5-fluoro-1-(fluoro-methyl)-2,3-dihydro-1H-benzo[d]pyrrolo[1,2-a]imidazol-7-yl)pyrimidin-2-amine] was tested, and the IC50 was > 100 nM. For `CC1(C)CCc2nc3c(F)cc(-c4nc(Nc5ccc(CN6CCN7CCC[C@@H]7C6)cn5)ncc4F)cc3n21` [Example 110, (R)-5-fluoro-4-(5-fluoro-1,1-dimethyl-2,3-dihydro-1H-benzo[d]pyrrolo[1,2-a]imidazol-7-yl)-N-(5-((hexahydropyrrolo[1,2-a]pyrazin-2(1H)-yl)methyl)pyridin-2-yl)pyrimidin-2-amine], the IC50 was 10 to 100 nM. With `CCN1CC2CCC(C1)N2Cc1ccc(Nc2ncc(F)c(-c3cc(F)c4nc5n(c4c3)[C@H](CF)CC5)n2)nc1` [Example 34, N-(5-((3-ethyl-3,8-diazabicyclo[3.2.1]octan-8-yl)methyl)pyridin-2-yl)-5-fluoro-4-((S)-5-fluoro-1-(fluoromethyl)-2,3-dihydro-1H-benzo[d]pyrrolo[1,2-a]imidazol-7-yl)pyrimidin-2-amine] the IC50 was 10 to 100 nM. In the case of `Fc1cnc(Nc2ccc(CN3CCC4(CCNCC4)CC3)cn2)nc1-c1cc(F)c2nc3n(c2c1)[C@H](C(F)(F)F)CC3` [Example 70, (S)-N-(5-((3,9-diazaspiro[5.5]undecan-3-yl)methyl)pyridin-2-yl)-5-fluoro-4-(5-fluoro-1-(trifluoromethyl)-2,3-dihydro-1H-benzo[d]pyrrolo[1,2-a]imidazol-7-yl)pyrimidin-2-amine], the IC50 is reported as > 1000 nM. In the case of `Fc1cnc(Nc2ccc(CN3CC4CC(C3)N4)cn2)nc1-c1cc(F)c2nc3n(c2c1)C1(CC3)CC1` [Example 132, N-(5-((3,6-diazabicyclo[3.1.1]heptan-3-yl)methyl)pyridin-2-yl)-5-fluoro-4-(5-fluoro-2,3-dihydrospiro[benzo[d]pyrrolo[1,2-a]imidazole-1,1′-cyclopropan]-7-yl)pyrimidin-2-amine], the IC50 is reported as > 100 nM. For `CCN1C2CCC1CN(Cc1ccc(Nc3ncc(F)c(-c4cc(F)c5nc6n(c5c4)[C@H](C)CC6)n3)nc1)C2` [Example 106, N-(5-((8-ethyl-3,8-diazabicyclo[3.2.1]octan-3-yl)methyl)pyridin-2-yl)-5-fluoro-4-((R)-5-fluoro-1-methyl-2,3-dihydro-1H-benzo[d]pyrrolo[1,2-a]imidazol-7-yl)pyrimidin-2-amine], the IC50 was 10 to 100 nM. In the case of `COC[C@@H]1CCc2nc3c(F)cc(-c4nc(Nc5ccc(CN6CCN(C)CC6)cn5)ncc4F)cc3n21` [Example 8, (S)-5-fluoro-4-(5-fluoro-1-(methoxymethyl)-2,3-dihydro-1H-benzo[d]pyrrolo[1,2-a]imidazol-7-yl)-N-(5-((4-methylpiperazin-1-yl)methyl)pyridin-2-yl)pyrimidin-2-amine], the IC50 is reported as > 100 nM. With `C[C@@]12CNC[C@]1(C)CN(Cc1ccc(Nc3ncc(F)c(-c4cc(F)c5nc6n(c5c4)C4(CC6)CC4)n3)nc1)C2` [Example 138, N-(5-(((3aR,6aS)-3a,6a-dimethylhexahydro-pyrrolo[3,4-c]pyrrol-2(1H)-yl)methyl)pyridin-2-yl)-5-fluoro-4-(5-fluoro-2,3-dihydro-spiro[benzo[d]pyrrolo[1,2-a]imidazole-1,1′-cyclopropan]-7-yl)pyrimidin-2-amine] the IC50 was > 1000 nM. In the case of `CCN1CC2(C1)CN(Cc1ccc(Nc3ncc(F)c(-c4cc(F)c5nc6n(c5c4)[C@H](CF)CC6)n3)nc1)C2` [Example 25, (S)-N-(5-((6-ethyl-2,6-diazaspiro[3.3]heptan-2-yl)methyl)pyridin-2-yl)-5-fluoro-4-(5-fluoro-1-(fluoromethyl)-2,3-dihydro-1H-benzo[d]pyrrolo[1,2-a]imidazol-7-yl)pyrimidin-2-amine], the IC50 is reported as 10 to 100 nM. In the case of `Fc1cnc(Nc2ccc(CN3CCC4(CCNCC4)CC3)cn2)nc1-c1cc(F)c2nc3n(c2c1)[C@H](C(F)F)CC3` [Example 51, (S)-N-(5-((3,9-diazaspiro[5.5]undecan-3-yl)methyl)pyridin-2-yl)-4-(1-(difluoromethyl)-5-fluoro-2,3-dihydro-1H-benzo[d]pyrrolo[1,2-a]imidazol-7-yl)-5-fluoropyrimidin-2-amine], the IC50 is reported as > 100 nM. `CCN1CC2CN(Cc3ccc(Nc4ncc(F)c(-c5cc(F)c6nc7n(c6c5)[C@H](C)CC7)n4)nc3)CC2C1` (stereo partly drawn) [Example 100, N-(5-((5-ethylhexahydropyrrolo[3,4-c]pyrrol-2(1H)-yl)methyl)pyridin-2-yl)-5-fluoro-4-((R)-5-fluoro-1-methyl-2,3-dihydro-1H-benzo[d]pyrrolo[1,2-a]imidazol-7-yl)pyrimidin-2-amine] showed an IC50 of 10 to 100 nM. Compound `CN1CC2CN(Cc3ccc(Nc4ncc(F)c(-c5cc(F)c6nc7n(c6c5)[C@H](CF)CC7)n4)nc3)CC2C1` (stereo partly drawn) [Example 27, 5-fluoro-4-((S)-5-fluoro-1-(fluoromethyl)-2,3-dihydro-1H-benzo[d]pyrrolo[1,2-a]imidazol-7-yl)-N-(5-((5-methylhexahydropyrrolo[3,4-c]pyrrol-2(1H)-yl)methyl)pyridin-2-yl)pyrimidin-2-amine] has an IC50 of 10 to 100 nM. With `CN1CCC2(CC1)CCN(Cc1ccc(Nc3ncc(F)c(-c4cc(F)c5nc6n(c5c4)[C@H](C(F)F)CC6)n3)nc1)CC2` [Example 52, (S)-4-(1-(difluoromethyl)-5-fluoro-2,3-dihydro-1H-benzo[d]pyrrolo[1,2-a]imidazol-7-yl)-5-fluoro-N-(5-((9-methyl-3,9-diazaspiro[5.5]undecan-3-yl)methyl)pyridin-2-yl)pyrimidin-2-amine] the IC50 was > 100 nM. Work on `CC1(C)CCc2nc3c(F)cc(-c4nc(Nc5ccc(CN6C7CCC6CNC7)cn5)ncc4F)cc3n21` [Example 126, N-(5-((3,8-diazabicyclo[3.2.1]octan-8-yl)methyl)pyridin-2-yl)-5-fluoro-4-(5-fluoro-1,1-dimethyl-2,3-dihydro-1H-benzo[d]pyrrolo[1,2-a]imidazol-7-yl)pyrimidin-2-amine] yielded an IC50 of 10 to 100 nM. In the case of `CCN1C2CCC1CN(Cc1ccc(Nc3ncc(F)c(-c4cc(F)c5nc6n(c5c4)[C@H](C(F)(F)F)CC6)n3)nc1)C2` [Example 81, N-(5-((8-ethyl-3,8-diazabicyclo[3.2.1]octan-3-yl)methyl)pyridin-2-yl)-5-fluoro-4-((S)-5-fluoro-1-(trifluoromethyl)-2,3-dihydro-1H-benzo[d]pyrrolo [1,2-a]imidazol-7-yl)pyrimidin-2-amine], the IC50 is reported as 10 to 100 nM. With `C[C@@H]1CCc2nc3c(F)cc(-c4nc(Nc5ccc(CN6CC7(CCNCC7)C6)cn5)ncc4F)cc3n21` [Example 89, (R)-N-(5-((2,7-diazaspiro[3.5]nonan-2-yl)methyl)pyridin-2-yl)-5-fluoro-4-(5-fluoro-1-methyl-2,3-dihydro-1H-benzo[d]pyrrolo[1,2-a]imidazol-7-yl)pyrimidin-2-amine] the IC50 was > 100 nM. In the case of `FC[C@@H]1CCc2nc3c(F)cc(-c4nc(Nc5ccc(CN6CC7CNCC7C6)cn5)ncc4F)cc3n21` (stereo partly drawn) [Example 26, 5-fluoro-4-((S)-5-fluoro-1-(fluoromethyl)-2,3-dihydro-1H-benzo[d]pyrrolo[1,2-a]imidazol-7-yl)-N-(5-((hexahydropyrrolo[3,4-c]pyrrol-2(1H)-yl)methyl)pyridin-2-yl)pyrimidin-2-amine], the IC50 is reported as > 100 nM.
